In publication PMC5017735, “A Novel Peptide Derived from the Fusion Protein Heptad Repeat Inhibits Replication of Subacute Sclerosing Panencephalitis Virus In Vitro and In Vivo” (PLoS ONE, 2016):
Peptide text beside a SMILES is read from it.

Assays:
[1] = In vivo toxicity, mice administered peptides alone; parameters: species or system BALB/cAJcl-nu/nu mice; conditions: peptide 100 μM intracranial, no virus infection
Protocol: (§1) Based on a previous report, but with slight modifications, 3-week-old female BALB/cAJcl-nu/nu mice (CLEA Japan Inc., Tokyo, Japan) were used in the animal experiments. Mice were divided in four groups (n = 6 for each cage) and housed with free access to both water and food and monitored daily. The mice were SSPE virus-infected or mock-infected (MEM alone) intracranially. An SSPE virus-infected cell suspension containing 250 PFU/ 30 μl (100% lethal dose) was inoculated into the subarachnoid space of nude mice using a 27-gauge double needle at a depth of 2 mm. Each compound was prepared at a concentration of 100 μM and was injected intracranially at 0 (mixed with viruses), 6, and 24 h after the initial virus inoculation. All injections were performed under inhalational anesthesia with isoflurane. Each mouse was checked for neurological symptoms and weighed daily. The ethical endpoint was defined as <75% of their maximum weight because most mice would die within 24 h. On attaining this endpoint, the mice were sacrificed by cervical dislocation under inhalational anesthesia with isoflurane. In this experiment, five mice died of natural causes before the ethical endpoint; however, all mice had neurological symptoms and 9.5%, 13.2%,14.5%, 15.8%, 16.4% weight loss (one each) relative to their maximum weight. This study was approved by the control of the Animal Research Committee in accordance with the Guidelines on Animal Experiments in Fukushima Medical University and the Rules for the Protection and Care of Animals (approval number: 23038).

SSPE Yamagata-1 strain [2] = assay: Viral plaque reduction assay, SSPE virus in Vero cells; type: cell-based, SSPE virus (variant measles virus)
Protocol: (§2) African green monkey kidney (Vero) cells and Vero cells expressing human SLAM (Vero/SLAM cells) were used in all experiments. The growth medium for Vero cells comprised minimal essential medium (MEM) supplemented with 10% heat-inactivated newborn bovine serum, penicillin G (100 IU/ml), streptomycin (100 μg/ml), and L-glutamine (300 μg/ml). The same growth medium, which was further supplemented with G418 (400 μg/ml), was used for Vero/SLAM cells. Cells were seeded into the wells (22 mm) of 12-well tissue culture plates at 1 × 10^5 cells/well and incubated at 37°C in a 10% CO2 incubator for 3 days, at which time they had just reached confluence. The virus strains used were human MV Edmonston strain and SSPE Yamagata-1 [34], which was originally isolated from the brain of an SSPE patient. The Edmonston strain of MV was used to inoculate Vero/SLAM cells and harvested after freeze–thawing infected cells. The SSPE Yamagata-1 strain was cultured in Vero/SLAM cells, harvested by trypsinization, prepared as an infected cell suspension in the Vero/SLAM cell medium supplemented with 10% dimethyl sulfoxide, and stored at −80°C until use.
(§3) Screening was performed to evaluate the antiviral effects of each synthetic peptide against the MV and SSPE viruses using the viral plaque reduction assay. Based on the results of the peptide screening, the 50% effective concentration (EC50), i.e., the concentration of compounds required to inhibit virus plaque formation by 50%, was also determined. The Human MV Edmonston strain was used to produce cell-free virions, which yielded a reproducible number of syncytia [generally 200–300 plaque-forming units (PFUs)] in the control wells. The SSPE virus was also used to yield a reproducible number of syncytia (generally 70–150 PFU) in control wells. In the peptide screening assay, each synthetic peptide was used at a concentration of 10 μM. IFN-α and enfuvirtide, a peptide fusion inhibitor of HIV-1, were used as controls at a concentration of 250 IU/ml and 10 μM, respectively.

SSPE virus = assay: Time-of-addition experiments, SSPE virus in Vero cells; type: cell-based, SSPE virus (variant measles virus)
Protocol: Synthetic peptides, M1 and M2EK (10 μM each) were used in time-of-addition experiments. Each peptide was added to Vero cells at three distinct time points: prior to infection (pretreatment with the compound), at the same time as the virus infection (simultaneous infection), or post-infection (post-entry). The SSPE virus was prepared to yield a reproducible number of syncytia in untreated control wells (approximately 50–100/well). In the pretreatment assay, peptide was added to confluent cells and incubated at 37°C for 30 min, and the cell cultures were washed with MEM before viral inoculation. Cells were then challenged with the SSPE virus at 0°C for 30 min. In the simultaneous infection assay, SSPE virus with peptide was inoculated at 0°C for 30 min. After the adsorption, the cell cultures were subsequently washed with MEM, and growth medium containing 0.75% methylcellulose was overlaid on the cell cultures, followed by incubation for 3 days in both pretreatment and simultaneous infection assays. In the post-entry assay, cells were challenged with the SSPE virus at 0°C for 30 min. After adsorption, the cell cultures were subsequently washed with MEM and peptide, which was prepared in growth medium containing 0.75% methylcellulose, was subsequently overlaid on the cell cultures at distinct time points. The starting point when cells were incubated at 0°C for 30 min was defined as t0.

Vero/SLAM cells = assay: Methyl tetrazolium cytotoxicity assay, Vero/SLAM cells; type: cell-based, African green monkey; conditions: confluent Vero/SLAM cells, 24 h, 37°C
Protocol: (§4) Peptide cytotoxicity was determined using the methyl tetrazolium assay. Five-fold serial dilutions of peptides were added to confluent Vero or Vero/SLAM cells. Cells were then incubated at 37°C for 24 h, and the number of viable cells was determined using 3-(4,5-dimethyllthiazol-2-yl)-2,5-diphenylterazolium bromide (Sigma–Aldrich, Tokyo, Japan). The 50% cytotoxic concentration (CC50), which was defined as the concentration required to reduce the cell viability by 50% relative to that of untreated controls, was determined. The selectivity index (SI) was defined as the ratio of the CC50 relative to the EC50 value.

SSPE Yamagata-1 strain [3] = assay: Viral RNA quantification in whole brain of SSPE virus-infected nude mice; type: in vivo, BALB/cAJcl-nu/nu mice; conditions: day 14 post-infection; intracranial peptide; n = 5 per group; P < 0.05
Protocol: Mice were divided in three groups (n = 5 for each cage) and housed with free access to both water and food and monitored daily. Mice were infected with SSPE virus intracranially in the same as animal survival experiments. Euthanasia was performed by cervical dislocation under isoflurane anesthesia on day 14 post-infection. The brain of each mouse was immediately harvested and mechanically homogenized with 2 ml Vero/SLAM cell growth medium using a PRO200 handheld or post-mounted homogenizer (PRO Scientific Inc., CT, USA). The homogenized brains were stored at −80°C. Viral RNA was extracted using ISOGEN-LS, and cDNA was synthesized using a reverse transcription kit (PrimeScript RT-reagent kit). MV RNA was quantified using a TaqMan real-time polymerase chain reaction assay, as previously described. The primer and probe were designed based on the MV Edmonston strain N gene, as previously reported. PCR amplification was performed using a 7300 Real-Time PCR system (Applied Biosystem). The control plasmid was produced by Dragon Genomics Center (Takara Bio, Mie, Japan) based on the MV Edmonston strain N gene (position 1321–1500).

MV Edmonston strain = assay: Viral plaque reduction assay, measles virus in Vero cells; type: cell-based; conditions: Vero cells
Protocol: as §2, §3

Vero cells = assay: Methyl tetrazolium cytotoxicity assay, Vero cells; type: cell-based, African green monkey; conditions: confluent Vero cells, 24 h, 37°C
Protocol: as §4

SSPE Yamagata-1 strain [4] = assay: Animal survival experiment, SSPE virus-infected nude mouse model; type: in vivo, BALB/cAJcl-nu/nu mice; conditions: SSPE virus 250 PFU intracranial; peptide 100 μM intracranial at 0, 6 and 24 h; n = 6; control group 0%
Protocol: as §1, with “This study was approved by the control of the Animal Research Committee in accordance with the Guidelines on Animal Experiments in Fukushima Medical University and the Rules for the Protection and Care of Animals (approval number: 23038).” left out

SSPE Yamagata-1 strain [5] = assay: Viral plaque reduction assay, SSPE virus in Vero/SLAM cells; type: cell-based, SSPE virus (variant measles virus)
Protocol: as §2, §3

[6] = selectivity index, ratio of CC50 relative to EC50

## CC[C@H](C)[C@H](NC(=O)[C@H](CCC(=O)O)NC(=O)[C@H](CCC(=O)O)NC(=O)[C@H](CO)NC(=O)[C@H](CCCCN)NC(=O)[C@H](CCCCN)NC(=O)[C@H](CC(C)C)NC(=O)[C@H](CC(C)C)NC(=O)[C@H](CCC(=O)O)NC(=O)[C@H](CCC(=O)O)NC(=O)[C@H](C)NC(=O)[C@H](CCCCN)NC(=O)[C@H](CCCCN)NC(=O)[C@H](CC(C)C)NC(=O)[C@H](CCCCN)NC(=O)[C@H](CCC(=O)O)NC(=O)[C@H](CCC(=O)O)NC(=O)[C@H](C)NC(=O)[C@H](CCCCN)NC(=O)[C@H](CCCCN)NC(=O)[C@H](CC(C)C)NC(=O)[C@H](CC(N)=O)NC(=O)[C@H](CCC(=O)O)NC(=O)[C@H](CCC(=O)O)NC(=O)[C@@H](NC(C)=O)C(C)C)C(=O)N[C@@H](CC(C)C)C(=O)N[C@@H](CCCCN)C(=O)N[C@@H](CCCCN)C(=O)N[C@@H](CCSC)C(=O)N[C@@H](CCC(=O)O)C(=O)N[C@@H](CCC(=O)O)C(=O)N[C@@H](CC(C)C)C(=O)N[C@@H](CO)C(=O)N[C@@H](CCCCN)C(=O)N[C@@H](CCCCN)C(N)=O [Peptide M2EK] (Ac-VEENLKKAEEKLKKAEELLKKSEEILKKMEELSKK-NH2)
[1]
  survival of mice administered with peptides alone, with no symptoms: > 45 days
SSPE Yamagata-1 strain [2]; peptide 10 μM, Vero cells and Vero/SLAM cells (Fig 2C), duplicate, at least twice independently
  inhibition of plaque formation compared with the control group, SSPE Yamagata-1 strain (peptide screening): > 97%
SSPE Yamagata-1 strain [2]; plaque reduction, SSPE Yamagata-1 strain, Vero cells, mean ± SD
  EC50: 50 ± 30 nM
SSPE Yamagata-1 strain [2]; selectivity index, ratio of CC50 relative to EC50, Vero cells
  SI, SSPE virus (Vero cells): >2041
SSPE virus; peptide 10 μM overlaid at distinct time points after adsorption
  viral inhibitory effect, peptide added post-infection (post-entry): observed in a time-dependent manner, particularly within 24 h
SSPE virus; peptide 10 μM, pretreatment 37°C 30 min or simultaneous with SSPE virus 0°C 30 min, compared with control
  viral plaque numbers, peptide added before viral adsorption or at the same time as virus inoculation: no reduction in viral plaque numbers
Vero/SLAM cells
  CC50, SSPE virus (Vero/SLAM cells): >100000 nM
SSPE Yamagata-1 strain [3]
  viral RNA copies in whole brain, lower than in M1-treated mice: approximately four
  viral RNA copies in whole brain, lower than in enfuvirtide-treated mice: approximately three
MV Edmonston strain; plaque reduction, MV Edmonston strain, mean ± SD
  EC50: 100 ± 70 nM
MV Edmonston strain; [6]
  SI, measles virus (Vero cells): >989
Vero cells
  CC50, SSPE virus (Vero cells): >100000 nM
  CC50, measles virus (Vero cells): >100000 nM
SSPE Yamagata-1 strain [4]
  survival rate: 67%
SSPE Yamagata-1 strain [5]; plaque reduction, SSPE Yamagata-1 strain, mean ± SD
  EC50: 20 ± 10 nM
SSPE Yamagata-1 strain [5]; [6]
  SI, SSPE virus (Vero/SLAM cells): >6579
